Data taken from ChEMBL document CHEMBL3603789, “N-Lipidated Peptide Dimers: Effective Antibacterial Agents against Gram-Negative Pathogens through Lipopolysaccharide Permeabilization” (J Med Chem, 2015).
Converted amounts (≈) assume the structure as drawn. Bridge positions count the residues as written; N and C are the ends. Peptide text beside a SMILES is read from it. I, II: the chains in the order shown. * marks the point of attachment. Myristoyl = CCCCCCCCCCCCCC(=O)*; Lauroyl = CCCCCCCCCCCC(=O)*; Decanoyl = CCCCCCCCCC(=O)*; Octanoyl = CCCCCCCC(=O)*; Hexanoyl = CCCCCC(=O)*; Butyryl = CCCC(=O)*

Tests used:
Klebsiella pneumoniae = test: Antibacterial activity against Klebsiella pneumoniae DM4299 after 24 hrs by broth microdilution method; type: functional; conditions: DM4299, 24 h
[1] = Toxicity in New Zealand white rabbit erythrocytes assessed as hemolytic activity after 60 mins; type: cell-based, Oryctolagus cuniculus; conditions: erythrocyte, 1 h
Pseudomonas aeruginosa [2] = test: Antibacterial activity against Pseudomonas aeruginosa DM23155 after 24 hrs by broth microdilution method; type: functional; conditions: DM23155, 24 h
Escherichia coli = test: Antibacterial activity against Escherichia coli ATCC 25922 after 24 hrs by broth microdilution method; type: functional; conditions: ATCC 25922, 24 h
Lipopolysaccharide (LPS) [3] = test: Displacement of dansylcadaverine from Escherichia coli 0111:B4 LPS at 15 to 30 uM after 5 mins by high-throughput fluorescence displacement assay
Lipopolysaccharide (LPS) [4] = test: Induction of Escherichia coli 0111:B4 LPS neutralization using p-nitroaniline assessed as concentration required to neutralize 50% after 1 hr by limulus amebocyte lysate assay
Pseudomonas aeruginosa [5] = test: Induction of 1-N-phenylnaphthylamine uptake in Pseudomonas aeruginosa DM23155 at 400 uM after 1 hr by fluorescence assay relative to polymyxin B; type: functional
Pseudomonas aeruginosa [6] = test: Induction of cytoplasmic membrane disruption in Pseudomonas aeruginosa DM23155 assessed as membrane integrity at 1 to 2 times MIC after 1 hr by fluorescence assay; type: functional
[7] = Induction of calcein leakage from DOPE/DOPG artificial membrane at 1:32 ratio of compound to lipid by fluorescence assay; type: physicochemical

| MIC (Klebsiella pneumoniae) | MIC (Pseudomonas aeruginosa [2]) | MIC (Escherichia coli) | Activity (Lipopolysaccharide (LPS) [3]) | EC50 (Lipopolysaccharide (LPS) [4]) | Activity [7] | SMILES | HC10 [1] | Activity (Pseudomonas aeruginosa [5]) | Activity (Pseudomonas aeruginosa [6]) |
| --- | --- | --- | --- | --- | --- | --- | --- | --- | --- |
| > 80 µM | > 80 µM | 20 µM (≈ 24.8 µg/mL) |  |  |  | CC(=O)N[C@@H](CCCNC(=N)N)C(=O)NCC(=O)N[C@@H](CCCNC(=N)N)C(=O)N[C@@H](CCCCN)C(=O)NCC(=O)NCC(=O)N[C@@H](CCCNC(=N)N)C(=O)N[C@@H](CCCNC(=N)N)C(=O)N[C@@H](CCCCN)C(=O)N[C@@H](CCCCN)C(=O)O (Ac-RGRKGGRRKK-OH) | > 10000 µg/mL |  |  |
| > 80 µM | > 80 µM | 40 µM (≈ 53 µg/mL) |  |  |  | CC(=O)N[C@@H](CCCNC(=N)N)C(=O)NCC(=O)N[C@@H](CCCNC(=N)N)C(=O)N[C@@H](CCCCN)C(=O)N[C@H](C(=O)N[C@H](C(=O)N[C@@H](CCCNC(=N)N)C(=O)N[C@@H](CCCNC(=N)N)C(=O)N[C@@H](CCCCN)C(=O)N[C@@H](CCCCN)C(=O)O)C(C)C)C(C)C (Ac-RGRKVVRRKK-OH) | > 10000 µg/mL |  |  |
| 80 µM (≈ 101 µg/mL) | 80 µM (≈ 101 µg/mL) | 40 µM (≈ 50.7 µg/mL) |  |  |  | CCCC(=O)N[C@@H](CCCNC(=N)N)C(=O)NCC(=O)N[C@@H](CCCNC(=N)N)C(=O)N[C@@H](CCCCN)C(=O)NCC(=O)NCC(=O)N[C@@H](CCCNC(=N)N)C(=O)N[C@@H](CCCNC(=N)N)C(=O)N[C@@H](CCCCN)C(=O)N[C@@H](CCCCN)C(=O)O (Butyryl-RGRKGGRRKK-OH) | > 10000 µg/mL |  |  |
| > 80 µM | > 80 µM | 40 µM (≈ 54.1 µg/mL) |  |  |  | CCCC(=O)N[C@@H](CCCNC(=N)N)C(=O)NCC(=O)N[C@@H](CCCNC(=N)N)C(=O)N[C@@H](CCCCN)C(=O)N[C@H](C(=O)N[C@H](C(=O)N[C@@H](CCCNC(=N)N)C(=O)N[C@@H](CCCNC(=N)N)C(=O)N[C@@H](CCCCN)C(=O)N[C@@H](CCCCN)C(=O)O)C(C)C)C(C)C (Butyryl-RGRKVVRRKK-OH) | > 10000 µg/mL |  |  |
| 20 µM (≈ 27.1 µg/mL) | 10 µM (≈ 13.5 µg/mL) | 10 µM (≈ 13.5 µg/mL) |  |  |  | CCCCCCCCCC(=O)N[C@@H](CCCNC(=N)N)C(=O)NCC(=O)N[C@@H](CCCNC(=N)N)C(=O)N[C@@H](CCCCN)C(=O)NCC(=O)NCC(=O)N[C@@H](CCCNC(=N)N)C(=O)N[C@@H](CCCNC(=N)N)C(=O)N[C@@H](CCCCN)C(=O)N[C@@H](CCCCN)C(=O)O (Decanoyl-RGRKGGRRKK-OH) | > 10000 µg/mL |  |  |
| 80 µM (≈ 115 µg/mL) | 20 µM (≈ 28.7 µg/mL) | 6 µM (≈ 8.62 µg/mL) | 78% | 0.566 mM |  | CCCCCCCCCC(=O)N[C@@H](CCCNC(=N)N)C(=O)NCC(=O)N[C@@H](CCCNC(=N)N)C(=O)N[C@@H](CCCCN)C(=O)N[C@H](C(=O)N[C@H](C(=O)N[C@@H](CCCNC(=N)N)C(=O)N[C@@H](CCCNC(=N)N)C(=O)N[C@@H](CCCCN)C(=O)N[C@@H](CCCCN)C(=O)O)C(C)C)C(C)C (Decanoyl-RGRKVVRRKK-OH) | > 10000 µg/mL |  |  |
| > 80 µM | > 80 µM | 20 µM (≈ 24 µg/mL) |  |  |  | N=C(N)NCCC[C@H](NC(=O)CNC(=O)[C@@H](N)CCCNC(=N)N)C(=O)N[C@@H](CCCCN)C(=O)NCC(=O)NCC(=O)N[C@@H](CCCNC(=N)N)C(=O)N[C@@H](CCCNC(=N)N)C(=O)N[C@@H](CCCCN)C(=O)N[C@@H](CCCCN)C(=O)O (H-RGRKGGRRKK-OH) | > 10000 µg/mL |  |  |
| > 80 µM | 80 µM (≈ 103 µg/mL) | 10 µM (≈ 12.8 µg/mL) |  |  |  | CC(C)[C@H](NC(=O)[C@H](CCCCN)NC(=O)[C@H](CCCNC(=N)N)NC(=O)CNC(=O)[C@@H](N)CCCNC(=N)N)C(=O)N[C@H](C(=O)N[C@@H](CCCNC(=N)N)C(=O)N[C@@H](CCCNC(=N)N)C(=O)N[C@@H](CCCCN)C(=O)N[C@@H](CCCCN)C(=O)O)C(C)C (H-RGRKVVRRKK-OH) | > 10000 µg/mL |  |  |
| > 80 µM | > 80 µM | 20 µM (≈ 25.9 µg/mL) |  |  |  | CCCCCC(=O)N[C@@H](CCCNC(=N)N)C(=O)NCC(=O)N[C@@H](CCCNC(=N)N)C(=O)N[C@@H](CCCCN)C(=O)NCC(=O)NCC(=O)N[C@@H](CCCNC(=N)N)C(=O)N[C@@H](CCCNC(=N)N)C(=O)N[C@@H](CCCCN)C(=O)N[C@@H](CCCCN)C(=O)O (Hexanoyl-RGRKGGRRKK-OH) | > 10000 µg/mL |  |  |
| 80 µM (≈ 110 µg/mL) | 80 µM (≈ 110 µg/mL) | 10 µM (≈ 13.8 µg/mL) |  |  |  | CCCCCC(=O)N[C@@H](CCCNC(=N)N)C(=O)NCC(=O)N[C@@H](CCCNC(=N)N)C(=O)N[C@@H](CCCCN)C(=O)N[C@H](C(=O)N[C@H](C(=O)N[C@@H](CCCNC(=N)N)C(=O)N[C@@H](CCCNC(=N)N)C(=O)N[C@@H](CCCCN)C(=O)N[C@@H](CCCCN)C(=O)O)C(C)C)C(C)C (Hexanoyl-RGRKVVRRKK-OH) | > 10000 µg/mL |  |  |
| 3 µM (≈ 6.62 µg/mL) | 6 µM (≈ 13.2 µg/mL) | 1.5 µM (≈ 3.31 µg/mL) | 56.1% | > 1 mM |  | CC(=O)N[C@@H](CCCNC(=N)N)C(=O)NCC(=O)N[C@@H](CCCNC(=N)N)C(=O)N[C@@H](CCCCN)C(=O)NCC(=O)NCC(=O)N[C@@H](CCCNC(=N)N)C(=O)N[C@@H](CCCNC(=N)N)C(=O)NCCCC[C@H](NC(=O)[C@H](CCCNC(=N)N)NC(=O)[C@H](CCCNC(=N)N)NC(=O)CNC(=O)CNC(=O)[C@H](CCCCN)NC(=O)[C@H](CCCNC(=N)N)NC(=O)CNC(=O)[C@H](CCCNC(=N)N)NC(C)=O)C(=O)N[C@@H](CCCCN)C(=O)O (I: Ac-RGRKGGRRKK-OH / II: Ac-RGRKGGRR; amide I:9-II:C) | > 10000 µg/mL | 1.6% |  |
| 6 µM (≈ 14.2 µg/mL) | 6 µM (≈ 14.2 µg/mL) | 6 µM (≈ 14.2 µg/mL) | 75.7% | > 1 mM | Active | CC(=O)N[C@@H](CCCNC(=N)N)C(=O)NCC(=O)N[C@@H](CCCNC(=N)N)C(=O)N[C@@H](CCCCN)C(=O)N[C@H](C(=O)N[C@H](C(=O)N[C@@H](CCCNC(=N)N)C(=O)N[C@@H](CCCNC(=N)N)C(=O)NCCCC[C@H](NC(=O)[C@H](CCCNC(=N)N)NC(=O)[C@H](CCCNC(=N)N)NC(=O)[C@@H](NC(=O)[C@@H](NC(=O)[C@H](CCCCN)NC(=O)[C@H](CCCNC(=N)N)NC(=O)CNC(=O)[C@H](CCCNC(=N)N)NC(C)=O)C(C)C)C(C)C)C(=O)N[C@@H](CCCCN)C(=O)O)C(C)C)C(C)C (I: Ac-RGRKVVRRKK-OH / II: Ac-RGRKVVRR; amide I:9-II:C) | > 10000 µg/mL |  | >80% |
| 6 µM (≈ 14.6 µg/mL) | 10 µM (≈ 24.3 µg/mL) | 3 µM (≈ 7.29 µg/mL) | 93.4% | > 1 mM | Active | CCCC(=O)N[C@@H](CCCNC(=N)N)C(=O)NCC(=O)N[C@@H](CCCNC(=N)N)C(=O)N[C@@H](CCCCN)C(=O)N[C@H](C(=O)N[C@H](C(=O)N[C@@H](CCCNC(=N)N)C(=O)N[C@@H](CCCNC(=N)N)C(=O)NCCCC[C@H](NC(=O)[C@H](CCCNC(=N)N)NC(=O)[C@H](CCCNC(=N)N)NC(=O)[C@@H](NC(=O)[C@@H](NC(=O)[C@H](CCCCN)NC(=O)[C@H](CCCNC(=N)N)NC(=O)CNC(=O)[C@H](CCCNC(=N)N)NC(=O)CCC)C(C)C)C(C)C)C(=O)N[C@@H](CCCCN)C(=O)O)C(C)C)C(C)C (I: Butyryl-RGRKVVRRKK-OH / II: Butyryl-RGRKVVRR; amide I:9-II:C) | > 10000 µg/mL |  | >80% |
| 10 µM (≈ 13.8 µg/mL) | 6 µM (≈ 8.28 µg/mL) | 6 µM (≈ 8.28 µg/mL) |  |  |  | CCCCCCCCCCCC(=O)N[C@@H](CCCNC(=N)N)C(=O)NCC(=O)N[C@@H](CCCNC(=N)N)C(=O)N[C@@H](CCCCN)C(=O)NCC(=O)NCC(=O)N[C@@H](CCCNC(=N)N)C(=O)N[C@@H](CCCNC(=N)N)C(=O)N[C@@H](CCCCN)C(=O)N[C@@H](CCCCN)C(=O)O (Lauroyl-RGRKGGRRKK-OH) | 8602 µg/mL |  |  |
| 20 µM (≈ 29.3 µg/mL) | 10 µM (≈ 14.6 µg/mL) | 6 µM (≈ 8.79 µg/mL) |  |  |  | CCCCCCCCCCCC(=O)N[C@@H](CCCNC(=N)N)C(=O)NCC(=O)N[C@@H](CCCNC(=N)N)C(=O)N[C@@H](CCCCN)C(=O)N[C@H](C(=O)N[C@H](C(=O)N[C@@H](CCCNC(=N)N)C(=O)N[C@@H](CCCNC(=N)N)C(=O)N[C@@H](CCCCN)C(=O)N[C@@H](CCCCN)C(=O)O)C(C)C)C(C)C (Lauroyl-RGRKVVRRKK-OH) | > 10000 µg/mL |  |  |
| 10 µM (≈ 14.1 µg/mL) | 6 µM (≈ 8.45 µg/mL) | 6 µM (≈ 8.45 µg/mL) |  |  |  | CCCCCCCCCCCCCC(=O)N[C@@H](CCCNC(=N)N)C(=O)NCC(=O)N[C@@H](CCCNC(=N)N)C(=O)N[C@@H](CCCCN)C(=O)NCC(=O)NCC(=O)N[C@@H](CCCNC(=N)N)C(=O)N[C@@H](CCCNC(=N)N)C(=O)N[C@@H](CCCCN)C(=O)N[C@@H](CCCCN)C(=O)O (Myristoyl-RGRKGGRRKK-OH) | 6670 µg/mL |  |  |
| 6 µM (≈ 8.96 µg/mL) | 10 µM (≈ 14.9 µg/mL) | 6 µM (≈ 8.96 µg/mL) |  |  |  | CCCCCCCCCCCCCC(=O)N[C@@H](CCCNC(=N)N)C(=O)NCC(=O)N[C@@H](CCCNC(=N)N)C(=O)N[C@@H](CCCCN)C(=O)N[C@H](C(=O)N[C@H](C(=O)N[C@@H](CCCNC(=N)N)C(=O)N[C@@H](CCCNC(=N)N)C(=O)N[C@@H](CCCCN)C(=O)N[C@@H](CCCCN)C(=O)O)C(C)C)C(C)C (Myristoyl-RGRKVVRRKK-OH) | 8897 µg/mL |  |  |
| > 80 µM | 10 µM (≈ 14.1 µg/mL) | 6 µM (≈ 8.45 µg/mL) | 69.9% | > 1 mM |  | CCCCCCCC(=O)N[C@@H](CCCNC(=N)N)C(=O)NCC(=O)N[C@@H](CCCNC(=N)N)C(=O)N[C@@H](CCCCN)C(=O)N[C@H](C(=O)N[C@H](C(=O)N[C@@H](CCCNC(=N)N)C(=O)N[C@@H](CCCNC(=N)N)C(=O)N[C@@H](CCCCN)C(=O)N[C@@H](CCCCN)C(=O)O)C(C)C)C(C)C (Octanoyl-RGRKVVRRKK-OH) | > 10000 µg/mL |  |  |
